Where two headings read alike, the source gives them in different places.
Tests used:
[1] = tested on: murine Ehrlich ascites carcinoma; settings: cited from earlier work
[2] = tested on: rat ascitic reticulum cell sarcoma; settings: material contained beta-elemene 65%; cited from earlier work
K562 leukemia cells = settings: cited from earlier work
[3] = Solubility of elemenes in water; type: physicochemical; settings: found by the inventor
cerebral carcinoma = settings: combination of the elemene and local chemotherapy; cited from earlier work
[4] = tested on: promyelocytic leukemia HL 60 cells; settings: cited from earlier work
[5] = tested on: erythroleukemia K562 cells; settings: cited from earlier work
[6] = tested on: peripheral blood leukocytes (PBL); settings: cited from earlier work
[7] = tested on: human leukemia K562 cells; settings: cited from earlier work
[8] = background statement; cited from earlier work
[9] = tested on: brain tumors (neuroglioma), liver and esophageal cancers; settings: 2 year clinical trial in China; cited from earlier work

solubility in water [3]	Molecule	anti-tumor activity ([1]; murine Ehrlich ascites carcinoma, material contained beta-elemene 65%)	side effects during treatment ([1]; murine and rat tumor models)	anti-tumor activity [2]	apoptosis of K562 leukemia cells (K562 leukemia cells)	patients reaching complete remission level (cerebral carcinoma)	in vitro IC50 [4]	in vitro IC50 [5]	in vitro IC50 [6]	apoptosis of K562 cells [7]	bcl-2 protein expression in K562 cells [7]	solubility in water [8]	clinical effect [9]
–	C=CC1(C)CCC(C(=C)C)CC1C(=C)C (stereo not drawn) [beta-elemene, 1-methyl-1-vinyl-2,4-diisoprotenyl-cyclohexane]	marked anti-tumor activity	Diarrhea and weight loss	marked anti-tumor activity	induces apoptosis	–	–	–	–	–	–	–	–
some solubility in water	elemene	–	–	–	–	27%	27.5 µg/mL	81 µg/mL	254.3 µg/mL	induces apoptosis	down-regulation of bcl-2 protein	insoluble in water	beneficial effects on brain tumors (neuroglioma), liver and esophageal cancers
